Data taken from patent publication US5099030A, “Novel compounds, pharmaceutical compositions, and methods for treating inflammation and pain” (The Procter & Gamble Company, priority 1991, dated 1992).

Tests used:
Rodent Hot Plate Test = type: in vivo, male Sprague-Dawley rats
Description: The degree of thermal analgesia obtained is determined using the "rodent hot plate test" (RHP). The RHP system is designed to detect and evaluate agents which elevate the threshold for the perception of pain. Classically, this method has been utilized primarily to evaluate opioid (narcotic) analgesic agents, such as morphine.
Male Sprague-Dawley rats (Charles River Breeding Laboratories Inc.) weighing between 100 and 125 grams upon arrival are used to evaluate the compounds of the present invention. Animals are double housed in stainless steel cages, and are fed Purina Rat Chow and tap water ad libitum. The animals are food fasted the afternoon proceeding the day of the study, and food is returned 5 hours post-treatment. Animals not being dosed by oral gavage are not fasted.
The apparatus for evaluating analgesic activity consists of an insulated copper hot plate whose surface is maintained at 55°±0.5° C. by a circulating water bath. A bottomless glass container (12" (30 cm) tall by 8" (20 cm) diameter) is used to restrict the animal to a defined area of the hot plate. After dosing, the animal is placed through the top opening of the container, and a stop watch is started when the animal makes contact with the plate. The stop-watch is stopped upon either of the following visually observed end points: (1) licking or biting of either hind paw, or (2) jumping. If the jump is not successful but both hind paws leave the surface of the plate in an effort to jump, this is considered jumping. The stop-watch is stopped at the end point and the animal is immediately removed from the hot plate. The time (latency) between the initial contact of the animal on the hot plate and the endpoint is recorded.
Prior to dosing, animals are tested on the hot plate. This is denoted as pretest or base line latency. Usually, the animals are dosed by oral gavage, using a 1 cubic cm glass syringe connected to a size 8 french catheter. The dose volume is 5 ml/kg. On occasion, the animals are dosed by either subcutaneous administration or intravenous injection. Using the subcutaneous administration, a 1 ml tuberculin syringe is connected to a 25 gauge 5/8 inch needle, and injected under the skin in the neck or back region. For intravenous dosing, a 1 ml tuberculin syringe is connected to a 25 gauge 3/4 inch winged infusion set, and injected into the tail vein. The dose volume for subcutaneous and intravenous routes is 1 ml/kg. The latency times are typically recorded at 1.5, 3, 5, and 24 hours post-treatment. Much shorter times are recorded for an intravenous administration.

[1] = Oral syrup in human (Example IX); type: in vivo; details: one teaspoon of syrup, 70 kg adult human
Description: (§1) A composition for oral administration is prepared by combining the following ingredients:
The above ingredients are combined to produce a syrup and are packaged under sterile conditions in 6 oz. bottles.

[2] = Oral soft gelatin capsules in human (Example VIII); type: in vivo; details: two oral capsules, 225 mg of composition each, 60 kg human
Description: as §1
The octadecenamide is dissolved in the sesame oil with the aid of sonication and is packaged in soft gelatin capsules using methods known in the art.

[3] = Topical application to human forearm (Example X); type: in vivo; details: for local analgesic effect: replacing N-((4-(2-methyl-2-aminopropoxy)-3-methoxyphenyl)-methyl)-9Z-octadecenamide
Description: A composition for topical administration is prepared by combining the following ingredients:
The octadecenamide is dissolved in a solution containing the other ingredients. Application of 0.4 ml of the resulting liquid to a 80 cm^2 portion of the forearm of a 60 kg human produces local analgesia which lasts approximately two days.

[4] = Mouse Abdominal Constriction Assay (phenylquinone writhing); type: in vivo, male CF-1 mice; details: for % Analgesia (3 hrs post-dose): 3 hrs post-dose (time of peak analgesic effect)
Description: Compounds of the present invention are tested for analgesic activity using the mouse abdominal constriction assay. This assay is described in Hendershot and Forsaith, J. Pharmacol. Exo.
Male CF-1 mice (Charles River Breeding Laboratories, Inc.), weighing approximately 20 grams and food fasted overnight, are used in these assays. Test compounds are prepared for oral (p.o.) or subcutaneous (s.c.) administration, with compounds of the present invention being prepared in acidified (1N acetic acid) distilled deionized water so that the appropriate dose is given in 0.2 mls to a 20 gram mouse.
Ten minutes after the i.p. injection of phenylquinone, the number of full body writhes are counted for the succeeding ten minutes. Percent analgesia in this assay is calculated as follows: [formula]

[5] = 100 mg/kg oral, 24 hr post dose
[6] = 0.4 ml to 80 cm^2 of forearm, 60 kg human

SMILES: COc1ccc2c3c1O[C@H]1[C@@H](O)C=C[C@H]4[C@@H](C2)N(C)CC[C@@]341 [Codeine Phosphate, reference compound]
- Mean Latency Times (Rodent Hot Plate Test; 50 mg/kg oral, 1 hr post dose): 8.7 s
- Mean Latency Times (Rodent Hot Plate Test; 50 mg/kg oral, 2 hr post dose): 6.4 s
- Mean Latency Times (Rodent Hot Plate Test; 50 mg/kg oral, 4 hr post dose): 6.5 s
- Mean Latency Times (Rodent Hot Plate Test; 100 mg/kg oral, 1 hr post dose): 8.5 s
- Mean Latency Times (Rodent Hot Plate Test; 100 mg/kg oral, 2 hr post dose): 8.9 s
- Mean Latency Times (Rodent Hot Plate Test; 100 mg/kg oral, 4 hr post dose): 6.0 s
- Mean Latency Times (Rodent Hot Plate Test; 200 mg/kg oral, 1 hr post dose): 16.9 s
- Mean Latency Times (Rodent Hot Plate Test; 200 mg/kg oral, 2 hr post dose): 21.0 s
- Mean Latency Times (Rodent Hot Plate Test; 200 mg/kg oral, 4 hr post dose): 11.7 s
- Mean Latency Times (Rodent Hot Plate Test; 400 mg/kg oral, 1 hr post dose): 26.5 s
- Mean Latency Times (Rodent Hot Plate Test; 400 mg/kg oral, 2 hr post dose): 28.4 s
- Mean Latency Times (Rodent Hot Plate Test; 400 mg/kg oral, 4 hr post dose): 24.6 s

SMILES: CCCCCCCC/C=C\CCCCCCCCNC(=O)Cc1ccc(OCCN)c(OC)c1 [N-(9Z-octadecenyl)-4-(2-aminoethoxy)-3-methoxyphenylacetamide]
- analgesia [1]: producing analgesia
- reduction of inflammation [1]: reducing inflammation
- Mean Latency Times (Rodent Hot Plate Test; 10 mg/kg oral, 1.5 hr post dose): 6.7 s
- Mean Latency Times (Rodent Hot Plate Test; 10 mg/kg oral, 3 hr post dose): 15.3 s
- Mean Latency Times (Rodent Hot Plate Test; 10 mg/kg oral, 5 hr post dose): 13.5 s
- Mean Latency Times (Rodent Hot Plate Test; 10 mg/kg oral, 24 hr post dose): 9.1 s
- Mean Latency Times (Rodent Hot Plate Test; 25 mg/kg oral, 1.5 hr post dose): 10.5 s
- Mean Latency Times (Rodent Hot Plate Test; 25 mg/kg oral, 3 hr post dose): 11.2 s
- Mean Latency Times (Rodent Hot Plate Test; 25 mg/kg oral, 5 hr post dose): 10.8 s
- Mean Latency Times (Rodent Hot Plate Test; 25 mg/kg oral, 24 hr post dose): 8.0 s
- Mean Latency Times (Rodent Hot Plate Test; 50 mg/kg oral, 1.5 hr post dose): 24.5 s
- Mean Latency Times (Rodent Hot Plate Test; 50 mg/kg oral, 3 hr post dose): 12.2 s
- Mean Latency Times (Rodent Hot Plate Test; 50 mg/kg oral, 5 hr post dose): 10.6 s
- Mean Latency Times (Rodent Hot Plate Test; 50 mg/kg oral, 24 hr post dose): 15.9 s
- Mean Latency Times (Rodent Hot Plate Test; 100 mg/kg oral, 1.5 hr post dose): 16.4 s
- Mean Latency Times (Rodent Hot Plate Test; 100 mg/kg oral, 3 hr post dose): 13.4 s
- Mean Latency Times (Rodent Hot Plate Test; 100 mg/kg oral, 5 hr post dose): 11.9 s
- Mean Latency Times (Rodent Hot Plate Test; [5]): 21.5 s
- analgesia [2]: increased analgesic effect
- reduction of inflammation [2]: substantially similar reduction of inflammation
- local analgesic effect [3]: substantially similar local analgesic effect

SMILES: CCCCCCCC/C=C\CCCCCCCC(=O)NCc1ccc(OC[C@@H](N)C(C)C)c(OC)c1 [N-((4-(2(S)-amino-3-methylbutoxy)-3-methoxyphenyl)methyl)-9Z-octadecenamide]
- analgesia [1]: substantially similar reduction of inflammation and analgesic effect
- reduction of inflammation [1]: substantially similar reduction of inflammation
- analgesia [2]: increased analgesic effect
- reduction of inflammation [2]: substantially similar reduction of inflammation
- local analgesic effect [3]: substantially similar local analgesic effect

SMILES: CCCCCCCC/C=C\CCCCCCCC(=O)NCc1ccc(OCC(N)C(=O)O)c(OC)c1 (centres unmarked) [N-((4-(2-amino-2-carboxyethoxy)-3-methoxyphenyl)-methyl)-9Z-octadecenamide]
- analgesia [1]: substantially similar reduction of inflammation and analgesic effect
- reduction of inflammation [1]: substantially similar reduction of inflammation
- analgesia [2]: increased analgesic effect
- reduction of inflammation [2]: substantially similar reduction of inflammation
- local analgesic effect [3]: substantially similar local analgesic effect

SMILES: CCCCCCCC/C=C\CCCCCCCC(=O)NCc1ccc(OCC(N)CO)c(OC)c1 (centres unmarked) [N-((4-(2-amino-3-hydroxypropoxy)-3-methoxyphenyl)-methyl)-9Z-octadecenamide]
- analgesia [1]: substantially similar reduction of inflammation and analgesic effect
- reduction of inflammation [1]: substantially similar reduction of inflammation
- analgesia [2]: increased analgesic effect
- reduction of inflammation [2]: substantially similar reduction of inflammation
- local analgesic effect [3]: substantially similar local analgesic effect

SMILES: CCCCCCCCC(=O)NCc1ccc(OCCN)c(OC)c1 [N-((4-(2-aminoethoxy)-3-methoxyphenyl)-methyl)-nonanamide]
- analgesia [1]: substantially similar reduction of inflammation and analgesic effect
- reduction of inflammation [1]: substantially similar reduction of inflammation
- Mean Latency Times (Rodent Hot Plate Test; 50 mg/kg oral, 3 hr post dose): 7.5 s
- Mean Latency Times (Rodent Hot Plate Test; 50 mg/kg oral, 5 hr post dose): 7.2 s
- Mean Latency Times (Rodent Hot Plate Test; 50 mg/kg oral, 24 hr post dose): 8.1 s
- Mean Latency Times (Rodent Hot Plate Test; 100 mg/kg oral, 3 hr post dose): 9.9 s
- Mean Latency Times (Rodent Hot Plate Test; 100 mg/kg oral, 5 hr post dose): 10.2 s
- Mean Latency Times (Rodent Hot Plate Test; [5]): 12.3 s
- Mean Latency Times (Rodent Hot Plate Test; 200 mg/kg oral, 3 hr post dose): 10.8 s
- Mean Latency Times (Rodent Hot Plate Test; 200 mg/kg oral, 5 hr post dose): 16.4 s
- Mean Latency Times (Rodent Hot Plate Test; 200 mg/kg oral, 24 hr post dose): 22.0 s
- Mean Latency Times (Rodent Hot Plate Test; 300 mg/kg oral, 3 hr post dose): 14.1 s
- Mean Latency Times (Rodent Hot Plate Test; 300 mg/kg oral, 5 hr post dose): 14.6 s
- Mean Latency Times (Rodent Hot Plate Test; 300 mg/kg oral, 24 hr post dose): 20.3 s
- analgesia [2]: increased analgesic effect
- reduction of inflammation [2]: substantially similar reduction of inflammation

SMILES: CCCCCCCC/C=C\CCCCCCCC(=O)NCc1ccc(OCC(C)(C)N)c(OC)c1 [N-((4-(2-methyl-2-aminopropoxy)-3-methoxyphenyl)-methyl)-9Z-octadecenamide]
- analgesia [2]: increased analgesic effect
- reduction of inflammation [2]: substantially similar reduction of inflammation
- duration of local analgesia [3, 6]: approximately two
- skin irritation [3, 6]: Little or no skin irritation

SMILES: CCCCCCCCC(=O)NCc1ccc(OCC(C)(C)N)c(OC)c1 [N-((4-(2-methyl-2-aminopropoxy)-3-methoxyphenyl)-methyl)-nonanamide]
- local analgesic effect [3]: substantially similar local analgesic effect

SMILES: CCCCCCCC/C=C\CCCCCCCC(=O)NCc1ccc(OCCC(C)COCC(C)(C)N)c(OC)c1 (centres unmarked) [N-((4-(2-methyl-2-aminopropoxy)-3-methylbutoxy)-3-methoxyphenyl)methyl)-9Z-octadecenamide]
- analgesia [1]: substantially similar reduction of inflammation and analgesic effect
- reduction of inflammation [1]: substantially similar reduction of inflammation

SMILES: CCCCCCCC/C=C\CCCCCCCC(=O)NCc1ccc(O)c(OC)c1 [N-Vanillyloleamide, N-vanillyloleamide, reference compound]
- % Analgesia (3 hrs post-dose) ([4]; 0.75 mg/kg subcutaneous): 35.4%
- % Analgesia (3 hrs post-dose) ([4]; 1.5 mg/kg subcutaneous): 62.8%
- % Analgesia (3 hrs post-dose) ([4]; 2.25 mg/kg subcutaneous): 76.1%
- % Analgesia (3 hrs post-dose) ([4]; 100 mg/kg oral): 36%
- % Analgesia (3 hrs post-dose) ([4]; 200 mg/kg oral): 60%
- % Analgesia (3 hrs post-dose) ([4]; 400 mg/kg oral): 79%
- time of peak analgesic effect ([4]; mouse, in vivo): 3 hours post-dose

SMILES: CCCCCCCCNC(=O)Cc1ccc(OCCN)c(OC)c1 [N-octanyl-4-(2-aminoethoxy)-3-methoxyphenylacetamide]
- analgesia [1]: substantially similar reduction of inflammation and analgesic effect
- reduction of inflammation [1]: substantially similar reduction of inflammation
- analgesia [2]: increased analgesic effect
- reduction of inflammation [2]: substantially similar reduction of inflammation
- local analgesic effect [3]: substantially similar local analgesic effect
